Experimental data reported in US12071624B2, “Antisense oligonucleotide targeting ARL4C molecule, and nucleic acid drug using antisense oligonucleotide” (OSAKA UNIVERSITY, priority 2018, dated 2024).

System: A549/Luc cells
Test: Xenograft orthotopic transplantation model using lung cancer cells
Type: in vivo, mouse
Protocol: Eight-week-old male nude mice (BALB/cAJcl-nu/nu, CLEA Japan, Inc.) were intraperitoneally injected with medetomidine (0.75 mg/kg), midazolam (4 mg/kg), and butorphanol (5 mg/kg) so as to be anesthetized. The xenograft orthotopic transplantation model was formed by transplanting human lung cancer cells into the left lungs of mice in the following order. A549/Luc cells (approximately 2×10^6 cells) were suspended in 10 μl of PBS (phosphate buffered saline) and 10 μl of Matrigel (BD Biosciences, San Jose, CA, USA), and a 29 G needle attached to a 0.5 ml insulin syringe (BD Biosciences, San Jose, CA, USA) was used to inject the same through the intercostal space to a depth of 2 mm in the left lung. The incision in the skin was closed with a 5-0 polypropylene suture, and the mice were rested on a warm carpet until they were fully recovered.
One week after the tumor transplantation, tumor establishment was confirmed using an IVIS imaging system (Xenogen Corp., Alameda, CA, USA). In the in-vivo imaging, 100 μl of VivoGlo luciferin (30 mg/ml) was administered via the tail vein, and bioluminescence imaging was recorded 5 minutes after the administration. Mice with established tumors were then divided into two groups, a control ASO inhalation group (n=7) and an ARL4C ASO inhalation group (n=9) in such a manner that the groups had identical IVIS signal intensities. […] When 21 days elapsed after the tumor transplantation, tumor sizes were determined using the IVIS imaging system, and then the mice were euthanized for histological analysis. […]
In an experiment in a xenograft orthotopic transplantation model using lung cancer cells, A549/Luc cells were transplanted into the left lung (day 0), and transbronchial administration of control ASO and ARL4C ASO-1316 was carried out when 7, 11 and 15 days had elapsed after the transplantation. […] In addition, when 7 and 21 days had elapsed since the transplantation, luminescence intensities of luciferase emitted from tumors in the left lungs in the mice were measured using software of IVIS/Kodak; the results are shown in the right part of (a) of FIG. 11. […]

ASO-1316: 15-mer AmNA/phosphorothioate ASO targeting ARL4C, base sequence SEQ ID NO: 1 gcatacctcaggtaa; Table 1 SEQ ID NO 13 (antisense GCATACCTCAGGTAA; AmNA and phosphorothioate modified, pattern not given here)
proliferation of A549/Luc cells in left lung (luciferase luminescence intensity) (200 μg/body transbronchially on days 7, 11 and 15, days 7 and 21): inhibited A549/Luc cells from proliferating | Ki-67-positive cells in left lung tumor (day 21): Ki-67-positive cells decreased in number | expression of ARL4C in left lung tumor (immunostaining) (day 21): decreased expression of ARL4C
